Data as given in US10647673B2, “Acetophenone compound, preparation method thereof, and application thereof in fatty liver prevention and treatment” (Nanjing Bioenergy Medicine Science & Technology Co., Ltd., priority 2017, dated 2020).

Test system: fatty liver of the SD rats
Assay: Pathological sections and grading of fatty liver of SD rats
Format: in vivo
Settings: compounds 80 mg/kg, Sim 10 mg/kg, OCA 10 mg/kg
Procedure: 500 g of lard oil was taken, placed in a container, and heated to melt. When the temperature rose to 100° C., it was added with 200 g of cholesterol to dissolve completely, and then further added with 20 g of propylthiouracil. The resulted mixture was stirred well, and added with 500 ml of Tween 80 after dissolution, resulting in an oil phase. At the same time, 600 mL of distilled water and 400 mL of 1,2-propanediol were taken and heated to 60° C. in a water bath, then were added with 40 g of sodium deoxycholate. The resulted mixture was stirred well until realizing complete dissolution, so as to give an aqueous phase. The aqueous phase was added into the oil phase and mixed well to give a lipid emulsion. The lipid emulsion was heated in a water bath of 37° C. before intragastric administration to animals.
An appropriate amount of pharmaceutical was weighed, added with 0.5% CMC-Na, and mixed homogeneously by grinding. There are groups for Compound 01 (80 mg/kg), Compound 02 (80 mg/kg), Compound 03 (80 mg/kg), Compound 04 (80 mg/kg), Compound 05 (80 mg/kg), Compound 06 (80 mg)/kg), Compound 07 (80 mg/kg), Compound 08 (80 mg/kg), Compound 09 (80 mg/kg), Compound 10 (80 mg/kg), Compound 11 (80 mg/kg), Compound 12 (80 mg/kg), Compound 13 (80 mg/kg), Compound 14 (80 mg/kg), Compound 15 (80 mg/kg), Compound 16 (80 mg/kg), Compound 17 (80 mg/kg), Compound 18 (80 mg/kg), Compound 19 (80 mg/kg), Compound 20 (80 mg/kg), Compound 21 (80 mg/kg), and Compound 22 (80 mg/kg).
Male SD rats weighing 180-200 g were fed adaptively for 7 days. Based on body weight, 10 animals were used as control and the remaining animals were intragastrically administered with the lipid emulsion every day, 1 ml/100 g body weight for 14 days. After fasting for 12 hours, 1 mL of blood was collected from the orbits of the animals, and was determined by Hitachi Automatic Biochemical Analyzer 7080 for serum cholesterol (CHO), triglyceride (TG), low density lipoprotein (LDL-C) and high density lipoprotein (HDL-C).
The modeled rats were continued with the intragastric administration of the lipid emulsion. At the same time, the pharmaceutical-administered groups were administrated with a corresponding dose of pharmaceuticals, while the Model group was administrated with an equal volume of solvent. The pharmaceutical-administered groups were administrated with the lipid emulsion in the morning, and with the pharmaceuticals in the afternoon. The animals were measured for the body weight once a week, and were observed. After 14 days of continuous administration, 1 mL of blood was collected from the orbits, and was determined for the contents of triglyceride, cholesterol, low density lipoprotein and high density lipoprotein in blood serum.

| Compound | Pathological grading: Steatotic hepatocytes (animal 1) | Pathological grading: Steatotic hepatocytes (animal 2) | Pathological grading: Steatotic hepatocytes (animal 3) | Pathological grading: Steatotic hepatocytes (animal 4) | Pathological grading: Steatotic hepatocytes (animal 5) |
| --- | --- | --- | --- | --- | --- |
| CC(=O)c1ccc(NC(=O)c2cccnc2)cc1 [Compound 01] | ++ (45-65% of hepatocytes undergoing steatosis) | ++ (45-65% of hepatocytes undergoing steatosis) | ++ (45-65% of hepatocytes undergoing steatosis) | ++ (45-65% of hepatocytes undergoing steatosis) | ++ (45-65% of hepatocytes undergoing steatosis) |
| Nc1ccc(C(=O)CNC(=O)c2cccnc2)cc1 [Compound 03] | ++ (45-65% of hepatocytes undergoing steatosis) | + (25-45% of hepatocytes undergoing steatosis) | +++ (65-85% or more of hepatocytes undergoing steatosis) | ++ (45-65% of hepatocytes undergoing steatosis) | ++ (45-65% of hepatocytes undergoing steatosis) |
| Cc1ccc(C)c(OCCCC(C)(C)C(=O)NCC(=O)c2ccc(N)cc2)c1 [Compound 04] | ++ (45-65% of hepatocytes undergoing steatosis) | ++ (45-65% of hepatocytes undergoing steatosis) | ++ (45-65% of hepatocytes undergoing steatosis) | +++ (65-85% or more of hepatocytes undergoing steatosis) | ++ (45-65% of hepatocytes undergoing steatosis) |
| CC(=O)c1ccc(O)c(NC(=O)C(C)(C)CCCOc2cc(C)ccc2C)c1 [Compound 05] | + (25-45% of hepatocytes undergoing steatosis) | +++ (65-85% or more of hepatocytes undergoing steatosis) | ++ (45-65% of hepatocytes undergoing steatosis) | ++ (45-65% of hepatocytes undergoing steatosis) | + (25-45% of hepatocytes undergoing steatosis) |
| CC(=O)c1ccc(O)c(NC(=O)c2cccnc2)c1 [Compound 06] | + (25-45% of hepatocytes undergoing steatosis) | ++ (45-65% of hepatocytes undergoing steatosis) | ++ (45-65% of hepatocytes undergoing steatosis) | + (25-45% of hepatocytes undergoing steatosis) | ++ (45-65% of hepatocytes undergoing steatosis) |
| CC(=O)c1ccc(NC(=O)C(C)(C)Oc2ccc(C(=O)c3cccc(Cl)c3)cc2)cc1 [Compound 07] | ++ (45-65% of hepatocytes undergoing steatosis) | ++ (45-65% of hepatocytes undergoing steatosis) | ++ (45-65% of hepatocytes undergoing steatosis) | ++ (45-65% of hepatocytes undergoing steatosis) | + (25-45% of hepatocytes undergoing steatosis) |
| CC(=O)c1ccc(NC(=O)C(C)(C)Oc2ccc(Cl)cc2)cc1 [Compound 08] | ++ (45-65% of hepatocytes undergoing steatosis) | ++ (45-65% of hepatocytes undergoing steatosis) | + (25-45% of hepatocytes undergoing steatosis) | ++ (45-65% of hepatocytes undergoing steatosis) | + (25-45% of hepatocytes undergoing steatosis) |
| CC(=O)c1ccc(NC(=O)C(C)(C)Oc2ccc(C3CC3(Cl)Cl)cc2)cc1 (stereo not shown) [Compound 10] | ++ (45-65% of hepatocytes undergoing steatosis) | ++ (45-65% of hepatocytes undergoing steatosis) | + (25-45% of hepatocytes undergoing steatosis) | ++ (45-65% of hepatocytes undergoing steatosis) | ++ (45-65% of hepatocytes undergoing steatosis) |
| Cc1ccc(C)c(OCCCC(C)(C)C(=O)NCC(=O)c2ccc(NC(=O)c3cccnc3)cc2)c1 [Compound 11] | + (25-45% of hepatocytes undergoing steatosis) | ++ (45-65% of hepatocytes undergoing steatosis) | ++ (45-65% of hepatocytes undergoing steatosis) | ++ (45-65% of hepatocytes undergoing steatosis) | + (25-45% of hepatocytes undergoing steatosis) |
| CC(=O)c1ccc(O)c(CCCOC(=O)C(C)(C)CCCOc2cc(C)ccc2C)c1 [Compound 15] | ++ (45-65% of hepatocytes undergoing steatosis) | +++ (65-85% or more of hepatocytes undergoing steatosis) | ++ (45-65% of hepatocytes undergoing steatosis) | ++ (45-65% of hepatocytes undergoing steatosis) | ++ (45-65% of hepatocytes undergoing steatosis) |
| CC(=O)c1ccc(O)c(CCCOC(=O)c2cccnc2)c1 [Compound 16] | + (25-45% of hepatocytes undergoing steatosis) | ++ (45-65% of hepatocytes undergoing steatosis) | +++ (65-85% or more of hepatocytes undergoing steatosis) | ++ (45-65% of hepatocytes undergoing steatosis) | + (25-45% of hepatocytes undergoing steatosis) |
| CC(C)(Oc1ccc(Cl)cc1)C(=O)Nc1ccc(C(=O)CNC(=O)c2cccnc2)cc1 [Compound 17] | + (25-45% of hepatocytes undergoing steatosis) | ++ (45-65% of hepatocytes undergoing steatosis) | ++ (45-65% of hepatocytes undergoing steatosis) | ++ (45-65% of hepatocytes undergoing steatosis) | ++ (45-65% of hepatocytes undergoing steatosis) |
| CC(=O)c1ccc(NC(=O)C(C)(C)CCCOc2cc(C)ccc2C)c(O)c1 [Compound 18] | + (25-45% of hepatocytes undergoing steatosis) | + (25-45% of hepatocytes undergoing steatosis) | ++ (45-65% of hepatocytes undergoing steatosis) | ++ (45-65% of hepatocytes undergoing steatosis) | ++ (45-65% of hepatocytes undergoing steatosis) |
| CC(=O)c1ccc(NC(=O)C(C)(C)Oc2ccc(Cl)cc2)c(O)c1 [Compound 19] | ++ (45-65% of hepatocytes undergoing steatosis) | ++ (45-65% of hepatocytes undergoing steatosis) | ++ (45-65% of hepatocytes undergoing steatosis) | +++ (65-85% or more of hepatocytes undergoing steatosis) | + (25-45% of hepatocytes undergoing steatosis) |
